Test results: paper PMC3265452 (PLoS Neglected Tropical Diseases, 2012)
Structures can show the parent of a compound that is named as a salt.

Molecular target: AaDOP2 (Aedes aegypti, UniProt H6D5H2)
Test: AaDOP2 antagonist screen of the LOPAC1280 library (HEK-CRELuc-Aadop2 cells, luminescence)
Type: cell-based
Conditions: not given

AaDOP2, sequence (H6D5H2 1-476): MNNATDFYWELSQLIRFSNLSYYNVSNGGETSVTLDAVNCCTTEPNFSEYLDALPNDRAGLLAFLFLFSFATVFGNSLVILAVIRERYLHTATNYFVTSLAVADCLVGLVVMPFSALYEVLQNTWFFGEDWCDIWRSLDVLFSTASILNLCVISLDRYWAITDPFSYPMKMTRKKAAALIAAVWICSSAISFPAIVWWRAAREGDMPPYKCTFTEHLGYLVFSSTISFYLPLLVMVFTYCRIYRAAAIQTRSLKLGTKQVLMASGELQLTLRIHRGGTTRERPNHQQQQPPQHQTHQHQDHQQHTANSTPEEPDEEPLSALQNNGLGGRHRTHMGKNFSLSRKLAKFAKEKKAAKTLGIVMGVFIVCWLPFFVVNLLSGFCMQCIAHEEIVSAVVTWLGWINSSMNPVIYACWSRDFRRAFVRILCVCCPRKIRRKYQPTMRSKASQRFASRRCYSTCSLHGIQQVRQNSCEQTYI

SMILES	Compound effect (percent receptor signaling in presence of test compound, relative lux units relative to the SCH23390 control)
CC(C)[C@@]1(NC(=O)[C@@H]2C=C3c4cccc5[nH]cc(c45)C[C@H]3N(C)C2)O[C@@]2(O)[C@@H]3CCCN3C(=O)[C@H](Cc3ccccc3)N2C1=O [Compound 508, Ergocristine]	100
NC(=O)OCC(COC(N)=O)c1ccccc1 [Compound 509, Felbamate]	113
CC(Cc1ccc(O)cc1)NCC(O)c1cc(O)cc(O)c1 (stereo not drawn) [Compound 511, Fenoterol hydrobromide]	136
CNCC[C@H](Oc1ccc(C(F)(F)F)cc1)c1ccccc1.Cl [Compound 512, S-(+)-Fluoxetine hydrochloride]	77
CNCC[C@@H](Oc1ccc(C(F)(F)F)cc1)c1ccccc1.Cl [Compound 513, R-(-)-Fluoxetine hydrochloride]	79
COCCCC/C(=N\OCCN)c1ccc(C(F)(F)F)cc1 [Compound 514, Fluvoxamine maleate]	114
COc1ccc2c(c1)c(CC(=O)O)c(C)n2Cc1ccc(F)cc1 [Compound 515, 1-(4-Fluorobenzyl)-5-methoxy-2-methylindole-3-acetic acid]	103
COc1cccc2c1[C@@H]1CN(CCCCn3c(=O)[nH]c4c(sc5ncc(-c6ccccc6)nc54)c3=O)C[C@@H]1CO2 [Compound 517, Fiduxosin hydrochloride]	69
NS(=O)(=O)c1cc(C(=O)O)c(NCc2ccco2)cc1Cl [Compound 518, Furosemide]	129
CC(C)OC(=O)C(C)(C)Oc1ccc(C(=O)c2ccc(Cl)cc2)cc1 [Compound 521, Fenofibrate]	95
O=C1NCC2(CCN(CCc3ccccc3)CC2)O1 [Compound 522, Fenspiride hydrochloride]	98
CCOC(=O)c1ncn2c1CN(C)C(=O)c1cc(F)ccc1-2 [Compound 523, Flumazenil]	124
CCCCc1ccc(C(=O)O)nc1 [Compound 525, Fusaric acid]	152
O=c1[nH]cc(F)c(=O)[nH]1 [Compound 526, 5-Fluorouracil]	156
O=C(NCC1CCCCN1)c1cc(OCC(F)(F)F)ccc1OCC(F)(F)F (stereo not drawn) [Compound 527, Flecainide acetate]	111
Oc1ccc(C2CNCCc3c2cc(O)c(O)c3Cl)cc1 (stereo not drawn) [Compound 528, Fenoldopam bromide]	112
C=C[C@@]1(C)CC(=O)[C@]2(O)[C@@]3(C)[C@@H](O)CCC(C)(C)[C@@H]3[C@H](O)[C@H](OC(C)=O)[C@@]2(C)O1 [Compound 529, Forskolin]	46
NC(N)=Nc1nc(CSCCC(N)=NS(N)(=O)=O)cs1 [Compound 530, Famotidine]	115
Fc1ccc(C(c2ccc(F)cc2)N2CCN(C/C=C/c3ccccc3)CC2)cc1 [Compound 533, Flunarizine dihydrochloride]	71

SMILES	Compound effect (percent receptor signaling in presence of test compound, relative lux units relative to the SCH23390 control)
C[C@H]1O[C@@H](n2cc(F)c(=O)[nH]c2=O)[C@H](O)[C@@H]1O [Compound 534, 5-fluoro-5'-deoxyuridine]	111
CC(C)C(=O)Nc1ccc([N+](=O)[O-])c(C(F)(F)F)c1 [Compound 536, Flutamide]	99
CC(C)(C(=O)O)c1ccc(C(O)CCCN2CCC(C(O)(c3ccccc3)c3ccccc3)CC2)cc1 (stereo not drawn) [Compound 537, Fexofenadine hydrochloride]	87
CCOC(=O)C1=C(C)NC(C)=C(C(=O)OC)C1c1cccc(Cl)c1Cl (stereo not drawn) [Compound 539, Felodipine]	96
O=C1NCN(c2ccccc2)C12CCN(CCCC(c1ccc(F)cc1)c1ccc(F)cc1)CC2 [Compound 540, Fluspirilene]	53
Cc1nc2c([nH]1)c(=O)n(C)c(=O)n2Cc1ccco1 [Compound 542, Furafylline]	120
COC(=O)c1c(C)[nH]c(C)c1C(=O)c1ccccc1Cc1ccccc1 [Compound 543, FPL 64176]	86
CNCCC(Oc1ccc(C(F)(F)F)cc1)c1ccccc1 (stereo not drawn) [Compound 544, Fluoxetine hydrochloride]	118
NCC(=O)NCCC(c1ccccc1)c1ccccc1 [Compound 545, N-(3,3-Diphenylpropyl)glycinamide]	105
COc1ccc(Cl)cc1C(=O)NCCc1ccc(S(=O)(=O)NC(=O)NC2CCCCC2)cc1 [Compound 546, Glibenclamide]	118
CN(C)c1cc2c(Nc3ccc4c(cnn4Cc4ccccc4)c3)ncnc2cn1 [Compound 547, GW2974]	68
N=C(N)NC(=O)Cc1c(Cl)cccc1Cl [Compound 548, Guanfacine hydrochloride]	112
Nc1nc(O)c2ncn(COC(CO)CO)c2n1 [Compound 550, Ganciclovir]	92
NC(=O)CC[C@H](N)C(=O)O [Compound 551, L-Glutamine]	115
NC(N)=Nc1ccc2[nH]c3c(c2c1)C[C@@]1(O)[C@H]2Cc4ccc(O)c5c4[C@@]1(CCN2CC1CC1)[C@H]3O5.O=C(O)C(F)(F)F.O=C(O)C(F)(F)F [Compound 552, Guanidinyl-naltrindole di-trifluoroacetate]	120
CN(CCOc1ccc(C[C@H](Nc2ccccc2C(=O)c2ccccc2)C(=O)O)cc1)c1ccccn1 [Compound 554, GW1929]	131
O=C1Nc2ccc(I)cc2/C1=C/c1cc(Br)c(O)c(Br)c1 [Compound 555, GW5074]	25
O=c1c(-c2ccc(O)cc2)coc2cc(O)cc(O)c12 [Compound 556, Genistein]	67
CC(C)(Sc1ccc(CCN(CCCCC2CCCCC2)C(=O)NC2CCCCC2)cc1)C(=O)O [Compound 557, GW7647]	50

Same assay, conditions: 10 µM compound, 300 nM dopamine, 2 hr; hit = compound effect <20

SMILES	Compound effect (percent receptor signaling in presence of test compound, relative lux units relative to the SCH23390 control) [%]
CCCCCCC(C(C)O)n1cnc2c(N)ncnc21.Cl (stereo not drawn) [Compound 507, erythro-9-(2-Hydroxy-3-nonyl)adenine hydrochloride]	128
CC(=O)O[C@H]1C[C@@]2(C)[C@@H](C[C@@H](O)[C@H]3[C@@]4(C)CC[C@@H](O)[C@@H](C)[C@@H]4CC[C@@]32C)/C1=C(\CCC=C(C)C)C(=O)[O-].[Na+] [Compound 510, Fusidic acid sodium]	131
O=C([O-])c1cc2cc(Cc3cccnc3)ccc2o1.[Na+] [Compound 516, Furegrelate sodium]	146
N[C@@H](Cc1ccc(F)cc1)C(=O)O [Compound 519, p-Fluoro-L-phenylalanine]	97
COc1cc(=O)n(C)c2c(OCC(O)C(C)(C)O)cccc12 (stereo not drawn) [Compound 524, Foliosidine]	190
CCCn1c(=O)c2[nH]c(C3CCCC3)nc2n(CCCOC(=O)c2ccc(S(=O)(=O)F)cc2)c1=O [Compound 531, FSCPX]	97
CC(C)=CCC/C(C)=C/CC/C(C)=C/CSc1ccccc1C(=O)O [Compound 532, Farnesylthiosalicylic acid]	120
Cl.N[C@@H](CCC(=O)O)C(=O)O [Compound 549, L-Glutamic acid hydrochloride]	93
Br.Br.N=C(N)NCCSSCCNC(=N)N [Compound 553, Guanidinoethyl disulfide dihydrobromide]	105
N=C(N)NC(CCC(=O)O)C(=O)O (stereo not drawn) [Compound 558, alpha-Guanidinoglutaric acid]	121
